Experimental findings from patent US9375456B2, “Antiviral composition containing an Aleurites fordii or Daphne kiusiana extract or a fraction thereof as an active ingredient” (priority 2009, dated 2016) are described below.

In the experiment the test system is NK92 cells. The experiment can be described thus: Dependence of Aleurites fordii extract-induced IFN-γ production on NF-κB/PKC signaling. The note with it: NK92 cells treated with inhibitor along with Aleurites fordii extract, FIG. 9. It is filed as cell-based, human.

In the case of `CC(=O)c1c(O)c(C)c(O)c(Cc2c(O)c3c(c(C(=O)/C=C/c4ccccc4)c2O)OC(C)(C)C=C3)c1O` [rotterin], the “induction of IFN-γ production by the Aleurites fordii extract” value is “reduced”.
